# Reference: patent US20190298722A1, “USE OF AN INHIBITOR OF THE DE NOVO SYNTHESIS OF PURINES, IN THE TREATMENT OF ADENYLOSUCCINATE LYASE DEFICIENCY” (ASSISTANCE PUBLIQUE-HOPITAUX DE PARIS, priority 2016, published 2019)
# Key:
# Assay type in all cases: in vivo, human
# [1] = tested on: patients with ADSL deficiency; experiment: Psychoeducational Profile (PEP3) developmental assessment during allopurinol treatment
# Procedure: (§1) Clinical characterization of the patients was carried out before starting treatment (T1) in accordance with the ICD 10 classification, using standardized tools: • A semi-structured interview by means of the Autism Diagnostic Interview (ADI-R): this is a semi-structured interview intended to classify symptoms reported by parents in the domain of communication, social interaction, restricted and stereotyped behaviours or sensory issues. Scores are established for the current period and, if necessary, for the period when the difficulties were most serious, between the ages of 4 and 5 years. A score is established for each of the three domains based on responses provided by the parents and the judgement of the interviewer. Scores above the thresholds in the 3 domains support a diagnosis of autism, and in one or two domains support a diagnosis of a pervasive developmental disorder. Scores below the thresholds in the 3 domains make it possible to rule out diagnosis of an autism spectrum disorder if the ADI-R results converge with the clinical assessment of the child. • A semi-structured interview using the Vineland 2 scale: this is a semi-structured interview which makes it possible to assess the adaptive skills of the child in the domains of communication, daily life, social skills and motor skills. From the description of their child's daily living skills, equivalent developmental ages and standardized scores are calculated, making it possible to describe the developmental and adaptive profile of the child. • A developmental assessment using the Psychoeducational Profile (PEP 3): this is a direct assessment of the skills of the child in several domains of their development, particularly suited to children who display a developmental disability. Six domains of development are assessed: verbal and preverbal cognition (VPC), expressive language (EL), receptive language (RL), gross motor skills (GM), fine motor skills (FM) and visual-motor imitation (VMI). The results are expressed in terms of equivalent developmental age and emerging score, when the exercises are partially completed. The number of emerging skills, or the difference between the actual ages and the emerging scores, are evidence of the development potential of the children. • The Conners scale: this is an assessment scale intended to quantify the symptoms of inattentiveness, agitation, impulsiveness, anxiety, somatization, behavioural difficulties and learning difficulties. There are several versions of the questionnaire, one for parents, the other for teachers or professionals. The scoring makes it possible to obtain an overall standardized score, considered to be significant when it is greater than 1.5.
# (§2) Clinical re-assessments were carried out 6 months and one year after treatment with allopurinol and compared to the first assessment in the absence of treatment with allopurinol. They comprised: • At 6 months: scoring of the Vineland and Conners scales • At 12 months: scoring of the Vineland and Conners scales and completion of PEP-3.
# Developmental progress was measured by means of developmental ages on the PEP3 scale before treatment (T1) and after a year of treatment (T3).
# [2] = tested on: patients with ADSL deficiency; experiment: Urinary assay of SAICAr and S-Ado by HPLC with UV detection (HPLC-DAD); details: 3 patients, after 6 and 12 months of treatment with allopurinol
# Procedure: (§3) SAICAr and S-Ado metabolites in urine were assayed using HPLC-DAD and HPLC coupled with tandem mass spectrometry (HPLC-MS/MS) according to the techniques recently described (Ceballos-Picot et al. 2015; Zikanova et al. 2014).
# [3] = tested on: patients with ADSL deficiency; experiment: Vineland scale (adaptive skills) during allopurinol treatment; set-up: Vineland standardized score, Communication / Vineland standardized score, Daily life / Vineland standardized score, Social skills / Vineland standardized score, Motor skills / Vineland standardized score, TOTAL: scale not given here
# Procedure: as §1, §2
# Clinical progress at 200 mg of allopurinol was measured for each child based on the Conner and Vineland scale scores before treatment (T1), at 6 months (T2) and at 12 months of treatment (T3) with regard to behaviour and function.
# [4] = tested on: patients with ADSL deficiency; experiment: Urinary assay of SAICAr and S-Adenosine by HPLC-MS/MS in patients treated with allopurinol; details: for urinary SAICAr: three children, allopurinol 200 mg/d
# Procedure: as §3
# The patients received allopurinol daily by the oral route (200 mg/d).
# [5] = Patient 1, T3 (12 months), T1 1.7
# [6] = Patient 2, T3 (12 months), T1 2.3
# [7] = Patient 3, T3 (12 months), T1 1.4
# [8] = Patient 1, T2 (6 months), T1 69
# [9] = Patient 1, T3 (12 months), T1 69
# [10] = patient P1, T2 (6 months) vs T1
# [11] = patient P1, T3 (12 months) vs T1
# [12] = patient P2, T2 (6 months) vs T1
# [13] = patient P2, T3 (12 months) vs T1
# [14] = patient P3, T2 (6 months) vs T1
# [15] = patient P3, T3 (12 months) vs T1
smiles,measurement,setting,value
"O=c1ncnc2[nH][nH]cc1-2 [allopurinol, 1,2-dihydro-4H-pyrazolo[3,4-d]pyrimidin-4-one]",equivalent developmental ages,"[1]; 3 patients, during treatment, rate remains slow with respect to chronological age",progression
same,"PEP3 developmental age, EL (expressive language)",[1]; [5],1.8
same,"PEP3 developmental age, RL (receptive language)",[1]; [5],2.3
same,"PEP3 developmental age, GM","[1]; Patient 1, T3 (12 months), T1 2.2",2.8
same,"PEP3 developmental age, FM","[1]; Patient 1, T3 (12 months), T1 2.5",2.8
same,"PEP3 developmental age, VPC (verbal and preverbal cognition)","[1]; Patient 1, T3 (12 months), T1 2.6, figures read as years.months per Table 2",3
same,"PEP3 developmental age, VMI (visual-motor imitation)","[1]; Patient 1, T3 (12 months), T1 2.8",3.3
same,"PEP3 developmental age, EL (expressive language)","[1]; Patient 2, T3 (12 months), T1 1.3",1.7
same,"PEP3 developmental age, RL (receptive language)","[1]; Patient 2, T3 (12 months), T1 1.8",2.7
same,"PEP3 developmental age, GM","[1]; Patient 2, T3 (12 months), T1 1.9",3.3
same,"PEP3 developmental age, FM",[1]; [6],4.0
same,"PEP3 developmental age, VPC (verbal and preverbal cognition)",[1]; [6],2.3
same,"PEP3 developmental age, VMI (visual-motor imitation)","[1]; Patient 2, T3 (12 months), T1 6",6.0
same,"PEP3 developmental age, EL (expressive language)",[1]; [7],2.3
same,"PEP3 developmental age, GM",[1]; [7],3.4
same,"PEP3 developmental age, RL (receptive language)","[1]; Patient 3, T3 (12 months), T1 1.5",2
same,"PEP3 developmental age, VPC (verbal and preverbal cognition)","[1]; Patient 3, T3 (12 months), T1 1.6",2.4
same,"PEP3 developmental age, FM","[1]; Patient 3, T3 (12 months), T1 2",3.6
same,"PEP3 developmental age, VMI (visual-motor imitation)","[1]; Patient 3, T3 (12 months), T1 2.1",3.3
same,"PEP3 developmental age, fine motor skills and receptive language","[1]; patient P2, T1 to T3",approximately a year
same,"PEP3 developmental age, gross motor skills","[1]; patient P2, T1 to T3",improvement of more than a year
same,"PEP3 developmental level, expressive language and preverbal and verbal cognition","[1]; patient P3, T1 to T3",gain of more than a year
same,SAICAr and S-Ado in urine (HPLC-DAD),[2],significant reduction
same,standardized scores on the Vineland scale in all domains,"[3]; 3 patients, during treatment, more pronounced for communication",improvement
same,"Vineland standardized score, Communication","[3]; Patient 1, T2 (6 months), T1 67",65
same,"Vineland standardized score, Daily life",[3]; [8],71
same,"Vineland standardized score, TOTAL",[3]; [8],76
same,"Vineland standardized score, Social skills","[3]; Patient 1, T2 (6 months), T1 73",66
same,"Vineland standardized score, Communication","[3]; Patient 1, T3 (12 months), T1 67",75
same,"Vineland standardized score, Daily life",[3]; [9],74
same,"Vineland standardized score, TOTAL",[3]; [9],74
same,"Vineland standardized score, Social skills","[3]; Patient 1, T3 (12 months), T1 73",75
same,"Vineland standardized score, Communication","[3]; Patient 2, T2 (6 months), T1 57",72
same,"Vineland standardized score, Motor skills","[3]; Patient 2, T2 (6 months), T1 61",67
same,"Vineland standardized score, TOTAL","[3]; Patient 2, T2 (6 months), T1 69",79
same,"Vineland standardized score, Social skills","[3]; Patient 2, T2 (6 months), T1 79",83
same,"Vineland standardized score, Daily life","[3]; Patient 2, T2 (6 months), T1 81",87
same,"Vineland standardized score, Communication","[3]; Patient 2, T3 (12 months), T1 57",75
same,"Vineland standardized score, Motor skills","[3]; Patient 2, T3 (12 months), T1 61",85
same,"Vineland standardized score, TOTAL","[3]; Patient 2, T3 (12 months), T1 69",82
same,"Vineland standardized score, Social skills","[3]; Patient 2, T3 (12 months), T1 79",83
same,"Vineland standardized score, Daily life","[3]; Patient 2, T3 (12 months), T1 81",87
same,"Vineland standardized score, Communication","[3]; Patient 3, T2 (6 months), T1 65",69
same,"Vineland standardized score, Motor skills","[3]; Patient 3, T2 (6 months), T1 67",70
same,"Vineland standardized score, TOTAL","[3]; Patient 3, T2 (6 months), T1 71",77
same,"Vineland standardized score, Daily life","[3]; Patient 3, T2 (6 months), T1 75",87
same,"Vineland standardized score, Social skills","[3]; Patient 3, T2 (6 months), T1 76",83
same,"Vineland standardized score, Communication","[3]; Patient 3, T3 (12 months), T1 65",74
same,"Vineland standardized score, Motor skills","[3]; Patient 3, T3 (12 months), T1 67",72
same,"Vineland standardized score, TOTAL","[3]; Patient 3, T3 (12 months), T1 71",80
same,"Vineland standardized score, Daily life","[3]; Patient 3, T3 (12 months), T1 75",87
same,"Vineland standardized score, Social skills","[3]; Patient 3, T3 (12 months), T1 76",88
same,"SAICAr, urine","[4]; patient P1, 6 months (T2) of allopurinol 200 mg/d oral, T1 37.7",32.9 μmol/mmol creat
same,"S-Adenosine, urine","[4]; patient P1, 6 months (T2) of allopurinol 200 mg/d oral, before treatment (T1) 55.4",51.6 μmol/mmol creat
same,"SAICAr, urine","[4]; patient P1, 12 months (T3) of allopurinol 200 mg/d oral, T1 37.7",19.4 μmol/mmol creat
same,"S-Adenosine, urine","[4]; patient P1, 12 months (T3) of allopurinol 200 mg/d oral, T1 55.4",36.4 μmol/mmol creat
same,% variation S-Adenosine,[4]; [10],−6.9%
same,% variation SAICAr,[4]; [10],−12.7%
same,"S-Ado/SAICAr ratio, urine","[4]; patient P1, T2 (6 months), T1 1.47",1.57
same,% variation S-Adenosine,[4]; [11],−34.3%
same,% variation SAICAr,[4]; [11],−48.6%
same,"S-Ado/SAICAr ratio, urine","[4]; patient P1, T3 (12 months), T1 1.47",1.88
same,"SAICAr, urine","[4]; patient P2, 6 months (T2) of allopurinol 200 mg/d oral, T1 95.4",57.9 μmol/mmol creat
same,"S-Adenosine, urine","[4]; patient P2, 6 months (T2) of allopurinol 200 mg/d oral, T1 116.3",79.3 μmol/mmol creat
same,"SAICAr, urine","[4]; patient P2, 12 months (T3) of allopurinol 200 mg/d oral, T1 95.4",46.8 μmol/mmol creat
same,"S-Adenosine, urine","[4]; patient P2, 12 months (T3) of allopurinol 200 mg/d oral, T1 116.3",63.7 μmol/mmol creat
same,% variation S-Adenosine,[4]; [12],−31.8%
same,% variation SAICAr,[4]; [12],−39.3%
same,"S-Ado/SAICAr ratio, urine","[4]; patient P2, T2 (6 months), T1 1.22",1.37
same,% variation S-Adenosine,[4]; [13],−45.2%
same,% variation SAICAr,[4]; [13],−51.0%
same,"S-Ado/SAICAr ratio, urine","[4]; patient P2, T3 (12 months), T1 1.22",1.36
same,"S-Adenosine, urine","[4]; patient P3, 6 months (T2) of allopurinol 200 mg/d oral, T1 148.6",113.3 μmol/mmol creat
same,"SAICAr, urine","[4]; patient P3, 6 months (T2) of allopurinol 200 mg/d oral, T1 167.9",96.3 μmol/mmol creat
same,"S-Adenosine, urine","[4]; patient P3, 12 months (T3) of allopurinol 200 mg/d oral, T1 148.6",98.2 μmol/mmol creat
same,"SAICAr, urine","[4]; patient P3, 12 months (T3) of allopurinol 200 mg/d oral, T1 167.9",72.9 μmol/mmol creat
same,% variation S-Adenosine,[4]; [14],−23.8%
same,% variation SAICAr,[4]; [14],−42.7%
same,"S-Ado/SAICAr ratio, urine","[4]; patient P3, T2 (6 months), T1 0.89",1.18
same,% variation S-Adenosine,[4]; [15],−33.9%
same,% variation SAICAr,[4]; [15],−56.6%
same,"S-Ado/SAICAr ratio, urine","[4]; patient P3, T3 (12 months), T1 0.89",1.35
same,urinary SAICAr,[4]; after 6 and 12 months of treatment,significant reduction
same,urinary SAICAr,[4]; after 6 months,significant reduction
